Data taken from US20210260070A1, “LYSIN CF-301 RESENSITIZES METHICILLIN-RESISTANT STAPHYLOCOCCUS AUREUA (MRSA) TO PENICILLIN DERIVATIVES AND FIRST GENERATION CEPHALOSPORINS” (priority 2018, published 2021).

How the values were obtained:
Type in all cases: cell-based, Staphylococcus aureus
[1] = test system: MRSA strain ATCC 33591; assay: Broth microdilution checkerboard assay; design: unit not given here; details: for MICinitial: each agent alone (initial); for MICfinal: * = Resensitization
Excerpt: (§1) In some embodiments, the present lysin polypeptides reduce the minimum inhibitory concentration (MIC) of an antibiotic. Any known method to assess MIC may be used. In some embodiments, a checkerboard assay is used to determine the effect of a lysin on antibiotic concentration. The checkerboard assay is based on a modification of the CLSI method for MIC determination by broth microdilution (See Clinical and Laboratory Standards Institute (CLSI), CLSI. 2015. Methods for Dilution Antimicrobial Susceptibility Tests for Bacteria That Grow Aerobically; Approved Standard-10th Edition. Clinical and Laboratory Standards Institute, Wayne, Pa., which is herein incorporated by reference in its entirety and Ceri et al. 1999. J. Clin. Microbiol. 37: 1771-1776, which is also herein incorporated by reference in its entirety).
(§2) Checkerboards are constructed by first preparing columns of e.g., a 96-well polypropylene microtiter plate, wherein each well has the same amount of antibiotic diluted 2-fold along the horizontal axis. […] The lysin and antibiotic dilutions are then combined, so that each column has a constant amount of antibiotic and doubling dilutions of lysin, while each row has a constant amount of lysin and doubling dilutions of antibiotic. Each well thus has a unique combination of lysin and antibiotic. Bacteria are added to the drug combinations at a given concentration. […] Summation fractional inhibitory concentrations (ΣFICs) are calculated for each drug and the minimum ΣFIC value (ΣFICmin) is used to determine the effect of the lysin/antibiotic combination.
(§3) A step-wise approach was used to evaluate PlySs2 as a resensitizing agent. First, broth microdilution checkerboard assays were used to determine fractional inhibitory concentration index (FICI) values for combinations of PlySs2 with three β-lactam antibiotics [oxacillin (OXA), nafcillin (NAF), and cefazoline (CFZ)] against nine different MRSA strains. Data from the checkerboard assays were generated to determine the interaction and potency of PlySs2 with the β-lactam antibiotics in comparison to their individual activities. This comparison is represented as the FICI value, whereby values of ≤0.5 are consistent with synergy, values of >0.5-<1 are highly-additive, values of 1-≤2 are indifferent, and values >2 are antagonistic. Representative single agent MICs are also shown, determined for each agent alone (initial) and in combinations (final). Resensitization occurs in synergistic combinations in which the β-lactam antibiotic MIC values fall below established breakpoints, e.g. a MIC value of ≤2 for β-lactam-sensitive isolates, a MIC value of ≥4 for β-lactam-resistant isolates. See Clinical and Laboratory Standards Institute (CLSI), CLSI. 2019. M100 Performance Standards for Antimicrobial Susceptibility Testing; 29th Edition. Clinical and Laboratory Standards Institute, Wayne, Pa.

[2] = test system: MRSA strain ATCC 43300; assay: Broth microdilution checkerboard assay; design: unit not given here; details: for MICinitial: each agent alone (initial); for MICfinal: * = Resensitization
Excerpt: as §1, §2, §3

[3] = test system: MRSA strain CAIRD 426; assay: Broth microdilution checkerboard assay; design: unit not given here; details: for MICinitial: each agent alone (initial); for MICfinal: * = Resensitization
Excerpt: as §1, §2, §3

[4] = test system: MRSA strain HPV 107; assay: Broth microdilution checkerboard assay; design: unit not given here; details: for MICinitial: each agent alone (initial); for MICfinal: * = Resensitization
Excerpt: as §1, §2, §3

[5] = test system: MRSA strain JMI 1280; assay: Broth microdilution checkerboard assay; design: unit not given here; details: for MICinitial: each agent alone (initial); for MICfinal: * = Resensitization
Excerpt: as §1, §2, §3

[6] = test system: MRSA strain JMI 227; assay: Broth microdilution checkerboard assay; design: unit not given here; details: for MICinitial: each agent alone (initial); for MICfinal: * = Resensitization
Excerpt: as §1, §2, §3

[7] = test system: MRSA strain JMI4789; assay: Broth microdilution checkerboard assay; design: unit not given here; details: for MICinitial: each agent alone (initial); for MICfinal: * = Resensitization
Excerpt: as §1, §2, §3

[8] = test system: MRSA strain MW2; assay: Broth microdilution checkerboard assay; design: unit not given here; details: for MICinitial: each agent alone (initial); for MICfinal: * = Resensitization
Excerpt: as §1, §2, §3

[9] = test system: MRSA strain NRS 11; assay: Broth microdilution checkerboard assay; design: unit not given here; details: for MICinitial: each agent alone (initial); for MICfinal: * = Resensitization
Excerpt: as §1, §2, §3

[10] = test system: nine different MRSA strains; assay: Broth microdilution checkerboard assays, summary over the panel; details: each of the nine MRSA strains; breakpoint MIC ≤2 sensitive
Excerpt: as §1, §2
A step-wise approach was used to evaluate PlySs2 as a resensitizing agent. First, broth microdilution checkerboard assays were used to determine fractional inhibitory concentration index (FICI) values for combinations of PlySs2 with three β-lactam antibiotics [oxacillin (OXA), nafcillin (NAF), and cefazoline (CFZ)] against nine different MRSA strains. […] Representative single agent MICs are also shown, determined for each agent alone (initial) and in combinations (final). […]

[11] = in combination PlySs2 + NAF (final)
[12] = in combination PlySs2 + CFZ (final)

Compound | MICinitial [1] | MICinitial [2] | MICinitial [3] | MICinitial [4] | MICinitial [5] | MICinitial [6] | MICinitial [7] | MICinitial [8] | MICinitial [9] | MIC in synergistic combination with PlySs2 relative to breakpoint [10] | other results
CCOc1ccc2ccccc2c1C(=O)N[C@@H]1C(=O)N2[C@@H]1SC(C)(C)[C@@H]2C(=O)O [NAF, nafcillin] | 64 | 2 | 16 | 2 | 256 | 4 | 4 | 4 | 64 | below breakpoint values | MICfinal [1, 11]: 2*; MICfinal [2, 11]: 0.25; MICfinal [3, 11]: 1*; MICfinal [4, 11]: 0.25; MICfinal [5, 11]: 2*; MICfinal [6, 11]: 0.5*; MICfinal [7, 11]: 0.5*; MICfinal [8, 11]: 0.031*; MICfinal [9, 11]: 1*
Cc1nnc(SCC2=C(C(=O)O)N3C(=O)[C@@H](NC(=O)Cn4cnnn4)[C@H]3SC2)s1 [CFZ, cefazoline] | 128 | 16 | 8 | 16 | 32 | 2 | 4 | 4 | 256 | below breakpoint values | MICfinal [1, 12]: 0.5*; MICfinal [2, 12]: 4; MICfinal [3, 12]: 0.5*; MICfinal [4, 12]: 2*; MICfinal [5, 12]: 0.5*; MICfinal [6, 12]: 0.5; MICfinal [7, 12]: 1*; MICfinal [8, 12]: 1*; MICfinal [9, 12]: 1*
